Like-named read-outs stand apart in the source and are kept apart here.
Tests used:
[1] = test system: IL-1β release in LPS-activated human peripheral blood mononuclear cells (PBMC); assay: LPS-induced IL-1β release from human PBMC; type: cell-based; set-up: IL-1β: unit not given here; settings: for IL-1β: LPS-stimulated PBMC
From the text: (§1) The ability of GMCY to inhibit release of pro-inflammatory cytokines (TNF-α and IL-1) in LPS-activated human peripheral blood mononuclear cells (PBMC) has been investigated.

human PPARα = target: T1, human PPARα (Homo sapiens, UniProt Q07869); assay: PPARα agonism, Gal4-luciferase transactivation assay in HEK 293-T; type: cell-based
T1 construct: host or cells: HEK 293-T
T1 sequence (Q07869 239-466 limits assumed): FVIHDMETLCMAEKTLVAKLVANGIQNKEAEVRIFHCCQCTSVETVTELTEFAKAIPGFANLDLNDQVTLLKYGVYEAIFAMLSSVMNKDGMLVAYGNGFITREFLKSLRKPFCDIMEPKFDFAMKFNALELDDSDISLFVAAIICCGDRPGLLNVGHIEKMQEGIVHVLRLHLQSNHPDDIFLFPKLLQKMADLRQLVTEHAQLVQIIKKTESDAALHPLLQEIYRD
Protocol: Effect of GMCY and glyceryl fatty acid esters of higher acid chain length on PPARα agonism.
Agonism of PPARα can be tested by commercially available assays such as by Indigo Biosciences). The test substance is dissolved in DMSO and serial dilutions in DMSO were prepared. A plasmid was formed by fusing a ligand-binding domain of human PPARα, to a DAN-binding domain of the yest transcription factor Gal4 under the control of the SV40 promoter. This plasmid also encoded the UAS-firefly luciferase reporter under the control of the Gal4 DNA response element. Cell-cultures and transactivation assays were HEK 293-T fibroblast (ATCC Manassas, Va.) which were cultured in high-glucose Dulbecco's Minimal Essential Medium (DMEM) supplemented with 10% fetal bovine serum (FBS, Sigma), 0.2 mg/ml streptomycin and 200 U/ml penicillin (Gibco Grand Island, N.Y.). Cells were transfected with plasmid DNA using Lipofectamine reagent (In Vitrogen, Carlsbad, Calif.) using the manufacturers recommended procedures. Sixteen hours after treatment, the cells were lysed with passive lysis buffer (Promega, Madison, Wis.) and a Tecan GeniousPro (Research Triangle Park, N.C.). The fold induction of normalised luciferase activity was calculated relative to DMSO, DMSO-treated cells.

[2] = test system: TNF-α release in LPS-activated human peripheral blood mononuclear cells (PBMC); assay: LPS-induced TNF-α release from human PBMC; type: cell-based; settings: for TNF-α: LPS-stimulated PBMC
From the text: as §1

skin = assay: Skin tolerability of dermatological compositions; settings: higher doses
From the text: Therefore, in current interesting embodiments of the invention, the dermatological composition comprises for reasons of safety and convenience a maximal dose of GMCY or an analogue thereof in an amount of 5% of GMCY or an analogue thereof by weight of the dermatological composition, such as in a maximum doses of 4.5%, 4%, 3.5%, 3%, 2.5%, 2%, 1.5%, 1.25 1%, 0.8, 0.6 and 0.5% of GMCY or an analogue thereof by weight of the dermatological composition.

[3] = target: T2, Protein tyrosine kinase enzyme Syk (Homo sapiens, UniProt P43405); assay: Protein tyrosine kinase Syk inhibition (MDS Pharma, assay no 174200); type: biochemical
T2 construct: MDS Pharma assay no 174200

[4] = test system: IL-6 release in LPS-activated human peripheral blood mononuclear cells (PBMC); assay: LPS-induced IL-6 release from human PBMC; type: cell-based; settings: physiologically relevant concentrations
[5] = target: T3, Fatty acid amid hydrolase (FAAH) (Rattus norvegicus, UniProt P97612); assay: FAAH in vitro enzyme assay (MDS Pharma Services); type: biochemical; settings: rat brain source; substrate Anandamide+[3H]Anandamide
T3 construct: source is rat brain; tissue MDS Pharma Services; host or cells: rat brain
T3 sequence (P97612 1-579): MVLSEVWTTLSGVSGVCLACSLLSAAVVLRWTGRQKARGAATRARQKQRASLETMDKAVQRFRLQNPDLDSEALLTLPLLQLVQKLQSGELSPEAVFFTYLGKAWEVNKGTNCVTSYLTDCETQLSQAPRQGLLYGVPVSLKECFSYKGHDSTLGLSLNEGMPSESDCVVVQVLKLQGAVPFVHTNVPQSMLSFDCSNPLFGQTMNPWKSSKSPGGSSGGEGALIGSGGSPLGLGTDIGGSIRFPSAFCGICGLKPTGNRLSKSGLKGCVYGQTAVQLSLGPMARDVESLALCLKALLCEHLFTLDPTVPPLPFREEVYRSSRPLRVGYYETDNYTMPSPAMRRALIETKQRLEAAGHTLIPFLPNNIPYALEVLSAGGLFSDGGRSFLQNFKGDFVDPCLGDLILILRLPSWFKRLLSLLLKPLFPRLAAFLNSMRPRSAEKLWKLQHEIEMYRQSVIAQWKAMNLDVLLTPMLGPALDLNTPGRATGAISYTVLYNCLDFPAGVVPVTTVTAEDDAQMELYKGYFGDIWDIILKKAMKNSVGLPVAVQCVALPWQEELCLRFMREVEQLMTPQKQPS
Protocol: The assay is conducted using the following test conditions; source is rat brain, substrate is Anandamide+[3H]Anandamide, the reation is[3H]Anandamide→[3H]Ethanolamine+Arachidonic acid and the quantitation is performed on [3H]Ethanolamine using a test concentration usually of about 10 μM.

vanilloid receptors = target: T4, vanilloid receptors (Rattus norvegicus, UniProt O35433); assay: In vitro radioligand binding assay for vanilloid receptors (MDS Pharma Services); settings: rat vas deferens, field stimulated
T4 construct: The tissue used in this assay was rat vas deferens, field stimulated; tissue MDS Pharma Services; host or cells: rat vas deferens
T4 sequence (O35433 whole entry): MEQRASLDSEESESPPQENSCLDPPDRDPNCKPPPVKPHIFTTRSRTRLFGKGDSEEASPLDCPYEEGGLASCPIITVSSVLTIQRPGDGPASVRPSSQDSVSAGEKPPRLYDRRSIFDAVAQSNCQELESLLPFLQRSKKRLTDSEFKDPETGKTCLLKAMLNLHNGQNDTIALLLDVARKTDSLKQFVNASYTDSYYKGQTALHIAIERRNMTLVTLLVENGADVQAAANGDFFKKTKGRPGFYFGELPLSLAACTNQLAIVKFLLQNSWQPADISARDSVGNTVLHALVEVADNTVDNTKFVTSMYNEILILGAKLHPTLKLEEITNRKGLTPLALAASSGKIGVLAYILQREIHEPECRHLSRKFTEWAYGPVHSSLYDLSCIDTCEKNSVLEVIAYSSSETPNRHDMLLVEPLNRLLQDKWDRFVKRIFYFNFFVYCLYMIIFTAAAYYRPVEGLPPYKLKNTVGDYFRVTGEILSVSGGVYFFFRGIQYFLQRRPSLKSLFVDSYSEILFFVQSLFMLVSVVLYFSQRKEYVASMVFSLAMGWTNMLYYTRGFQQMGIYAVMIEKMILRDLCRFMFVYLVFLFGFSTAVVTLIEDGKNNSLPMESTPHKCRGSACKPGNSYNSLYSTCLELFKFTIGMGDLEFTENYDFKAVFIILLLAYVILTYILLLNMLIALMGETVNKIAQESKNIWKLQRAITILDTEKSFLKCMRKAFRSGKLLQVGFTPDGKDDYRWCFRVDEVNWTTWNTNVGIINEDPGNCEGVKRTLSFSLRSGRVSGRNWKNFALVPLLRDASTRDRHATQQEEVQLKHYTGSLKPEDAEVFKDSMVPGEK
From the text: Literature reference to this assay is Wardle, K A et al. J PharmPharmacol. 48:285, 1996.

[6] = test system: capsaicin-induced neurogenic inflammation (ear oedema); assay: Capsaicin-induced ear oedema (neurogenic inflammation) model in mice; type: in vivo, NMRI mice; settings: for % relative ear oedema (2. app): co-administered with capsaicin 250 μg/ear, 15 min after second capsaicin application; for % inhibition of ear oedema: after second capsaicin application, vs vehicle
From the text: Effect on capsaicin-induced neurogenic inflammation in mice and binding to the TRP vanillioid receptor.
The mechanism of cutaneous neurogenic inflammation is connected with the release of neuropeptides from sensory nerve endings. The neuropeptide substance P is believed to play a major role in inducing an inflammatory response by affecting different inflammatory cells.

acute inflammation = settings: Example 111 of WO 2004/000333; cited from earlier work
[7] = target: T3, Fatty acid amid hydrolase (FAAH); settings: reference compound of the assay; cited from earlier work
[8] = physiologically relevant concentrations

Structure (SMILES): CCCCCCCC(=O)OCC(O)CO (racemic) [GMCY, 1-glyceryl monocaprylate]
- IL-1β ([1]; 1 μM): 459.2
- IL-1β ([1]; 10 μM): 320.9
- IL-1β ([1]; 100 μM): 238.6
- IL-1β ([1]; 1000 μM): 124.5
- IL-1β ([1]; 10000 μM): 8.2
- inhibition of LPS induced release of IL-1β [1, 8]: dose dependently inhibit
- PPARα agonism (human PPARα): did not act as an agonist
- TNF-α ([2]; 1 μM): 230.2
- TNF-α ([2]; 10 μM): 105
- TNF-α ([2]; 100 μM): 73.7
- TNF-α ([2]; 1000 μM): 38.5
- TNF-α [2]: 6.9
- inhibition of LPS induced release of TNF-α [2, 8]: dose dependently inhibit
- skin burning / irritation (skin): causes burning or weak irritation in higher doses
- IC50 [3]: 61 µM
- inhibition of LPS induced release of IL-6 [4]: dose dependently inhibit
- IC50 [5]: 53 µM
- binding to the vanilloid receptors (vanilloid receptors): does not bind
- % relative ear oedema (2. app) ([6]; 100 μg/ear topical): 15.8%
- % inhibition of ear oedema ([6]; 100 μg/ear): 32.6%
- % relative ear oedema (2. app) ([6]; 450 μg/ear topical): 15.3%
- % inhibition of ear oedema ([6]; 450 μg/ear): 34.4%
- % relative ear oedema (2. app) ([6]; 2000 μg/ear topical): 15.0%
- % inhibition of ear oedema ([6]; 2000 μg/ear): 36.0%
- reduction of inflammation in comparison to the vehicle control ([6]; after repeated application of capsaicin, treated groups overall): about 35%
- effect on acute inflammation (acute inflammation): any effect could not be proven statistically

Structure (SMILES): CCCCCCCCCC(=O)OCC(O)CO (centres unmarked) [1-glyceryl monocaprate, reference compound]
- inhibitory effect on neurogenic inflammation (ear oedema vs vehicle control) ([6]; all treated groups (2000, 450, 100 μg/ear)): no inhibitory effect

Structure (SMILES): C[C@@H]1C[C@H]2[C@@H]3CCC4=CC(=O)C=C[C@]4(C)[C@@]3(F)[C@@H](O)C[C@]2(C)[C@@]1(O)C(=O)CO [Dexamethasone, reference compound]
- TNF-α ([2]; Dexamethasone control, concentration not given): 87

Structure (SMILES): CCCCCCCC/C=C\CCCCCCCC(=O)C(F)(F)F [Oleyl Trifluromethyl Ketone]
- IC50 [7]: 0.029 µM

From patent publication US20080167375A1, “TREATMENT OF CUTANEOUS NEUROGENIC INFLAMMATION” (Astion Pharma A/S, priority 2006, published 2008)
